Experimental findings from patent US20080145427A1, “Dosage Forms Providing Controlled and Immediate Release of Cholesteryl Ester Transfer Protein Inhibitors and Immediate Release of Hmg-Coa Reductase Inhibitors” (priority 2005, published 2008) are described below.

The data set in a line: Aqueous solubility of torcetrapib. It counts as physicochemical. To be noted: aqueous environment, at about 22° C. unless otherwise specified. The method, then: The CETP inhibitor may be any compound capable of inhibiting the cholesteryl ester transfer protein. The CETP inhibitor is typically “sparingly water-soluble,” which means that the CETP inhibitor has a minimum aqueous solubility of less than about 1 to 2 mg/mL at any physiologically relevant pH (e.g., pH 1-8) and at about 22° C. Many CETP inhibitors are “substantially water-insoluble,” which means that the CETP inhibitor has a minimum aqueous solubility of less than about 0.01 mg/mL (or 10 μg/mL) at any physiologically relevant pH (e.g., pH 1-8) and at about 22° C. (Unless otherwise specified, reference to aqueous solubility herein and in the claims is determined at about 22° C.) Compositions of the present invention find greater utility as the solubility of the CETP inhibitors decreases, and thus are preferred for CETP inhibitors with solubilities less than about 10 μg/mL, and even more preferred for CETP inhibitors with solubilities less than about 1 μg/mL. Many CETP inhibitors have even lower solubilities (some even less than 0.1 μg/mL), and require dramatic concentration enhancement to be sufficiently bioavailable upon oral dosing for effective plasma concentrations to be reached at practical doses. […]

As to `CCOC(=O)N1c2ccc(C(F)(F)F)cc2[C@@H](N(Cc2cc(C(F)(F)F)cc(C(F)(F)F)c2)C(=O)OC)C[C@H]1CC` [torcetrapib, [2R,4S]-4-[(3,5-bis-trifluoromethyl-benzyl)-methoxycarbonyl-amino]-2-ethyl-6-trifluoromethyl-3,4-dihydro-2H-quinoline-1-carboxylic acid ethyl ester], the solubility (in general, the dissolved amount per volume that the medium holds) was less than 0.04 µg/mL.
